From US20090298868A1, “QUINOLINE COMPOUNDS AS MELANOGENESIS MODIFIERS AND USES THEREOF” (priority 2007, published 2009)
Structures can show the parent of a compound that is named as a salt. Where two headings read alike, the source gives them in different places. One block for each molecule: values may come before it.

System: cultured murine melanocytes (melan-a)
Assay: Melanin assay in cultured murine melanocytes (melan-a)
Assay type: cell-based
Settings: for inhibition at 1 µM / inhibition at 5 µM / IC50: Mus musculus; for inhibition at 1 µM / inhibition at 5 µM: 72 h; for inhibition at 1 µM: read-out: % Inh. @ 1 μM; for inhibition at 5 µM: read-out: % Inh. @ 5 μM
Description: The Spectrum Collection library consisting of 2000 drug compounds or natural products was screened to identify novel pigmentation inhibitors or stimulators in cultured murine melanocytes (melan-a). Compounds were dissolved in dimethylsulfoxide (DMSO) to a final concentration of 10 mM. Screening was performed with cultured melanocytes in 24-well plates followed by melanin assay (see below). A minimum change of 50% in melanin formation was established as significant for a pigmentation inhibitor or stimulator. DMSO was used as a negative control and the widely used depigmenting agent, hydroquinone, was used as a positive control on every plate. Primary screening was performed at a final concentration of 1 μM and potential candidates from the primary screening were reconfirmed in duplicate at final concentrations of 1 and 5 μM.
Melan-a cells were plated at 5×10^4 cells per well in 1 ml of culture media in 24-well plates the day before adding the library compounds. All compounds were added at the indicated final concentrations. Cells were harvested after 72 hours of incubation, and melanin assay was performed.
The hits identified herein were purchased from Sigma (St Louis, Mo.). […] These compounds were dissolved in dimethylsulfoxide (DMSO) to a final concentration of 10 mM, and were tested for their effect on melanin synthesis at the indicated final concentrations.
For the primary and secondary screening, cells were harvested and dissolved in 200 μL of 2N NaOH in 20% DMSO at 70° C. A 180-μl aliquot of the resulting solution was measured for absorbance at 490 nm.
The lysates were centrifuged at 14,000 rpm for 10 minutes at 4° C. BCA protein assay kit (Pierce) was used to measure the protein concentrations of the supernatants, and bovine serum albumin was used as a standard. The remaining pellets were incubated with 100 μl ethanol-ether (1:1) for 10 minutes at room temperature. After removing the ethanol-ether, the pellets were dissolved in 200 μL of 2N NaOH in 20% DMSO at 70° C. A 180-μL aliquot of the resulting solution was measured for absorbance at 490 nm. The melanin contents were normalized to the total amount of protein.

[1] = Melan-a, melanin formation, melan-a cells, 1 μM compound, 72 hours incubation
[2] = Melan-a, melanin formation, melan-a cells, 5 μM compound, 72 hours incubation
[3] = inhibition of melanin synthesis, melan-a cells, read-out: IC50
[4] = melanin formation, melan-a cells, 1 μM compound, 72 hours incubation
[5] = melanin formation, melan-a cells, 5 μM compound, 72 hours incubation

Molecule: CC[C@H]1CN2CCC1CC2[C@@H](OC(=O)c1ccc(Cl)cc1)c1ccnc2ccc(OC)cc12 (some centres unmarked) [ID 22, Hydroquinidine 4-chlorobenzoate]
inhibition at 1 µM [1]: 10% | inhibition at 5 µM [2]: 25.5%

IC50 [3]: 10200 ± 280 nM
Molecule: CCCCOc1cc(C(=O)NCCN(CC)CC)c2ccccc2n1 [ID 4, Dibucaine Hydrochloride]

Molecule: C=C[C@H]1C[N@]2CC[C@H]1C[C@@H]2[C@@H](OC(=O)OCC)c1ccnc2ccc(OC)cc12 [ID 5, Quinine Ethyl Carbonate]
IC50 (Melan-a): 5100 ± 120 nM | inhibition at 1 µM (Melan-a): 15% | inhibition at 5 µM (Melan-a): 49%

Molecule: C=C[C@H]1C[N@@]2CCC1C[C@H]2[C@H](O)c1ccnc2ccc(OC)cc12 (single isomer, unassigned; (+)) [ID 14, (+)-3-Hydroxybutyric acid, quinine salt]
% Inh. @ 1 μM (melanin formation, melan-a cells, 1 μM compound, 72 hours incubation, 1 µM): 32.6% | % Inh. @ 5 μM (melanin formation, melan-a cells, 5 μM compound, 72 hours incubation, 5 µM): 61.3%

Molecule: C=C[C@H]1CN2CCC1CC2[C@@H](O)c1ccnc2ccc(OC)cc12 (some centres unmarked) [ID 17, Quinine hydrochloride dihydrate]
inhibition at 1 µM [1]: 27.5% | inhibition at 5 µM [2]: 61.5%

Molecule: (−)-3-Hydroxybutyric acid, quinine salt [ID 15]
% Inh. @ 1 μM [4]: 34.4% | % Inh. @ 5 μM [5]: 63.9%

IC50 [3]: 2000 ± 150 nM
Molecule: OC(c1cc(C(F)(F)F)nc2c(C(F)(F)F)cccc12)C1CCCCN1 (centres unmarked) [ID 11, Mefloquine]
inhibition at 1 µM [1]: 10% | inhibition at 5 µM [2]: 75%

Molecule: CC[C@H]1CN2CCC1CC2C(O)c1ccnc2ccc(OC)cc12 (some centres unmarked) [ID 18, Hydroquinine]
inhibition at 1 µM [1]: 37.3% | inhibition at 5 µM [2]: 71.7%

Molecule: C=C[C@H]1C[N@]2CC[C@H]1C[C@H]2[C@H](O)c1ccnc2ccccc12 [ID 9, Cinchonidine]
inhibition at 1 µM [1]: 25% | inhibition at 5 µM [2]: 35.7% | IC50 [3]: 10900 ± 220 nM

Molecule: C=CC1CN2CCC1CC2[C@H](O)c1ccnc2ccc(OC)cc12 (some centres unmarked) [ID 16, Quinine hydrobromide]
inhibition at 1 µM [1]: 30.1% | inhibition at 5 µM [2]: 63.9%

Molecule: CCN(CC)CCCC(C)Nc1ccnc2cc(Cl)ccc12 (centres unmarked) [ID 2, Chloroquine Diphosphate]
IC50 (Melan-a): 700 ± 180 nM | inhibition at 1 µM (Melan-a): 62% | inhibition at 5 µM (Melan-a): 70%

IC50 (μM) (inhibition of melanin synthesis, melan-a cells): active
Molecule: CC[C@H]1CN2CCC1C[C@@H]2[C@@H](O)c1ccnc2ccc(OC)cc12 (some centres unmarked) [ID 8, Hydroquinidine]
inhibition at 1 µM [1]: 30.9% | inhibition at 5 µM [2]: 52.3%

IC50 [3]: 2600 ± 150 nM
Molecule: CCN(CC)Cc1ccc(Nc2ccnc3cc(Cl)ccc23)cc1O [ID 1, Amodiaquine Dihydrochloride]
inhibition at 1 µM [1]: 21% | inhibition at 5 µM [2]: 79%

Molecule: CC[C@H]1CN2CCC1CC2[C@@H](O)c1ccnc2ccccc12 (some centres unmarked) [ID 20, Hydrocinchonine]
inhibition at 1 µM (Melan-a): 24% | inhibition at 5 µM (Melan-a): 37.3%

Molecule: COc1cc(NC(C)CCCN)c2ncccc2c1 (centres unmarked) [ID 3, Primaquine Diphosphate]
IC50 (Melan-a): 6800 ± 370 nM | inhibition at 1 µM (Melan-a): 30% | inhibition at 5 µM (Melan-a): 47%

Molecule: C=C[C@H]1C[N@]2CC[C@H]1C[C@@H]2[C@@H](O)c1ccnc2ccc(OC)cc12 [ID 6, Quinidine Gluconate]
IC50 (Melan-a): 2700 ± 140 nM | inhibition at 1 µM (Melan-a): 41% | inhibition at 5 µM (Melan-a): 58%

Molecule: C=C[C@H]1CN2CCC1CC2C(O)c1ccnc2ccc(OC)cc12 (some centres unmarked) [ID 12, Quinine]
inhibition at 1 µM [1]: 42.6% | inhibition at 5 µM [2]: 70.9%

Molecule: C=C[C@H]1C[N@]2CC[C@H]1C[C@@H]2[C@H](O)c1ccnc2ccccc12 [ID 10, Cinchonine]
inhibition at 1 µM [1]: 18% | inhibition at 5 µM [2]: 30% | IC50 [3]: > 20000 nM

Molecule: C=C[C@H]1C[N+]2(Cc3ccccc3)CC[C@H]1C[C@H]2[C@H](O)c1ccnc2ccccc12.[Cl-] [ID 21, N- Benzylcinchonidinium chloride]
% Inh. @ 1 μM [4]: 9.6% | % Inh. @ 5 μM [5]: 16.4%

Molecule: CC[C@H]1C[N@@]2CCC1C[C@H]2[C@H](O)c1ccnc2ccc(OC)cc12 [ID 19, Hydroquinine hydrobromide hydrate]
inhibition at 1 µM [1]: 26.8% | inhibition at 5 µM [2]: 67.4%

Molecule: C=C[C@H]1C[N@@]2CCC1C[C@H]2[C@H](O)c1ccnc2ccc(OC)cc12 [ID 13, Quinine Salicylate]
inhibition at 1 µM [1]: 33% | inhibition at 5 µM [2]: 60%

Molecule: C=C[C@H]1C[N@]2CC[C@H]1C[C@@H]2C(O)c1ccnc2ccc(OC)cc12 (some centres unmarked) [ID 7, Quinine Sulfate]
IC50 (Melan-a): 1500 ± 190 nM | inhibition at 1 µM (Melan-a): 31% | inhibition at 5 µM (Melan-a): 58%
